Reference: PubChem BioAssay (NCI)
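Each compound was tested at five concentrations against cells in 96-well plates for 48 hours. TGI is the concentration that stops growth completely.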

Columns and labels:
Experiment in all cases: NCI tumour cell line growth inhibition, 48 h
[1] = test system: 786-0 renal
[2] = test system: A498 renal
[3] = test system: ACHN renal
[4] = test system: CCRF-CEM leukemia
[5] = test system: COLO 205 colon
[6] = test system: DLD-1 colon
[7] = test system: DMS 114 small cell lung
[8] = test system: DMS 273 small cell lung
[9] = test system: EKVX NSCLC
[10] = test system: HCC-2998 colon
[11] = test system: HCT-116 colon
[12] = test system: HCT-15 colon
[13] = test system: HL-60(TB) leukemia
[14] = test system: HOP-18 NSCLC
[15] = test system: HOP-62 NSCLC
[16] = test system: HOP-92 NSCLC
[17] = test system: HT29 colon
[18] = test system: IGROV1 ovarian
[19] = test system: K-562 leukemia
[20] = test system: KM12 colon
[21] = test system: KM20L2 colon
[22] = test system: LOX IMVI melanoma
[23] = test system: LXFL 529 NSCLC
[24] = test system: M14 melanoma
[25] = test system: M19-MEL melanoma
[26] = test system: MALME-3M melanoma
[27] = test system: MOLT-4 leukemia
[28] = test system: NCI-H226 lung
[29] = test system: NCI-H23 lung
[30] = test system: NCI-H460 lung
[31] = test system: NCI-H522 lung
[32] = test system: OVCAR-3 ovarian
[33] = test system: OVCAR-4 ovarian
[34] = test system: OVCAR-5 ovarian
[35] = test system: OVCAR-8 ovarian
[36] = test system: RPMI-8226 leukemia
[37] = test system: RXF 393 renal
[38] = test system: RXF-631 renal
[39] = test system: SF-268 CNS
[40] = test system: SF-295 CNS
[41] = test system: SF-539 CNS
[42] = test system: SK-MEL-2 melanoma
[43] = test system: SK-MEL-28 melanoma
[44] = test system: SK-OV-3 ovarian
[45] = test system: SN12C renal
[46] = test system: SNB-19 CNS
[47] = test system: SNB-75 CNS
[48] = test system: SNB-78 CNS
[49] = test system: SW-620 colon
[50] = test system: TK-10 renal
[51] = test system: U251 CNS
[52] = test system: UACC-257 melanoma
[53] = test system: UACC-62 melanoma
[54] = test system: UO-31 renal
[55] = test system: XF 498 CNS
[56] = test system: CAKI-1 renal
[57] = test system: SR leukemia
[58] = test system: A549 NSCLC
[59] = test system: BT-549 breast
[60] = test system: DU-145 prostate
[61] = test system: HS 578T breast
[62] = test system: MCF7 breast
[63] = test system: MDA-MB-231 breast
[64] = test system: MDA-MB-435
[65] = test system: MDA-N
[66] = test system: NCI/ADR-RES ovarian
[67] = test system: PC-3 prostate
[68] = test system: SK-MEL-5 melanoma
[69] = test system: T-47D breast

COc1cc([C@H]2c3cc4c(cc3[C@H](NCc3ccc(F)cc3)C3COC(=O)[C@H]32)OCO4)cc(OC)c1O (stereo partly specified)
TGI [1]: 5.48 µM | TGI [2]: 8.02 µM | TGI [3]: 4.34 µM | TGI [4]: > 100 µM | TGI [5]: 31.5 µM | TGI [6]: > 100 µM | TGI [7]: 18.7 µM | TGI [8]: 13.8 µM | TGI [9]: 28.8 µM | TGI [10]: 23.8 µM | TGI [11]: 23.1 µM | TGI [12]: 16.2 µM | TGI [13]: 4.7 µM | TGI [14]: > 100 µM | TGI [15]: 3.82 µM | TGI [16]: 49.5 µM | TGI [17]: 27 µM | TGI [18]: 34 µM | TGI [19]: 41 µM | TGI [20]: 15.1 µM | TGI [21]: 15.8 µM | TGI [22]: 17 µM | TGI [23]: > 100 µM | TGI [24]: 13.6 µM | TGI [25]: 23.4 µM | TGI [26]: 19.5 µM | TGI [27]: 6.42 µM | TGI [28]: 7.61 µM | TGI [29]: 6.34 µM | TGI [30]: 12.3 µM | TGI [31]: 9.48 µM | TGI [32]: 29.3 µM | TGI [33]: > 100 µM | TGI [34]: 30.9 µM | TGI [35]: 35.1 µM | TGI [36]: 18.2 µM | TGI [37]: 42.8 µM | TGI [38]: 14.3 µM | TGI [39]: > 100 µM | TGI [40]: 17.9 µM | TGI [41]: 5.07 µM | TGI [42]: 33.1 µM | TGI [43]: 37 µM | TGI [44]: 9.78 µM | TGI [45]: 6.67 µM | TGI [46]: 51.2 µM | TGI [47]: 9.16 µM | TGI [48]: 78 µM | TGI [49]: 21.4 µM | TGI [50]: 41.4 µM | TGI [51]: 4.35 µM | TGI [52]: 43.6 µM | TGI [53]: 6.68 µM | TGI [54]: 14.9 µM | TGI [55]: 9.67 µM

CNC1CC(n2cc(C)c(=O)[nH]c2=O)OC1CO (stereo unspecified)
TGI [1]: > 100 µM | TGI [2]: > 100 µM | TGI [3]: > 100 µM | TGI [56]: > 100 µM | TGI [4]: > 100 µM | TGI [5]: > 100 µM | TGI [6]: > 100 µM | TGI [7]: > 100 µM | TGI [8]: > 100 µM | TGI [10]: > 100 µM | TGI [11]: > 100 µM | TGI [13]: > 100 µM | TGI [15]: > 100 µM | TGI [16]: > 100 µM | TGI [18]: > 100 µM | TGI [19]: > 100 µM | TGI [23]: > 100 µM | TGI [24]: > 100 µM | TGI [25]: > 100 µM | TGI [26]: > 100 µM | TGI [27]: > 100 µM | TGI [28]: > 100 µM | TGI [29]: > 100 µM | TGI [31]: > 100 µM | TGI [33]: > 100 µM | TGI [36]: > 100 µM | TGI [38]: > 100 µM | TGI [39]: > 100 µM | TGI [41]: > 100 µM | TGI [42]: > 100 µM | TGI [43]: > 100 µM | TGI [44]: > 100 µM | TGI [45]: > 100 µM | TGI [47]: > 100 µM | TGI [57]: > 100 µM | TGI [53]: > 100 µM | TGI [54]: > 100 µM | TGI [55]: > 100 µM

Cc1nc(Nc2ccc(Cl)c(Cl)c2)sc1C(/C=C/c1ccc2c(c1)OCO2)=N/Nc1ccc([N+](=O)[O-])cc1[N+](=O)[O-]
TGI [1]: > 100 µM | TGI [2]: > 100 µM | TGI [58]: > 100 µM | TGI [3]: > 100 µM | TGI [59]: > 100 µM | TGI [56]: > 46.4 µM | TGI [4]: > 100 µM | TGI [5]: > 100 µM | TGI [6]: > 100 µM | TGI [7]: > 100 µM | TGI [8]: > 100 µM | TGI [60]: > 100 µM | TGI [9]: > 100 µM | TGI [10]: > 100 µM | TGI [11]: > 100 µM | TGI [12]: > 100 µM | TGI [13]: > 100 µM | TGI [14]: > 100 µM | TGI [15]: > 84 µM | TGI [16]: > 100 µM | TGI [61]: > 100 µM | TGI [17]: > 100 µM | TGI [18]: > 100 µM | TGI [19]: > 100 µM | TGI [20]: > 100 µM | TGI [21]: > 100 µM | TGI [22]: > 100 µM | TGI [23]: > 100 µM | TGI [24]: > 100 µM | TGI [25]: > 100 µM | TGI [26]: > 100 µM | TGI [62]: > 100 µM | TGI [63]: > 100 µM | TGI [64]: > 100 µM | TGI [65]: > 100 µM | TGI [27]: > 56.2 µM | TGI [28]: > 100 µM | TGI [29]: > 100 µM | TGI [30]: > 100 µM | TGI [31]: > 100 µM | TGI [66]: > 100 µM | TGI [32]: > 100 µM | TGI [33]: > 100 µM | TGI [34]: > 100 µM | TGI [35]: > 100 µM | TGI [67]: > 100 µM | TGI [36]: > 100 µM | TGI [37]: 67.2 µM | TGI [39]: > 100 µM | TGI [40]: > 100 µM | TGI [41]: > 91.6 µM | TGI [42]: > 100 µM | TGI [43]: > 100 µM | TGI [68]: > 100 µM | TGI [44]: > 100 µM | TGI [45]: > 100 µM | TGI [46]: > 100 µM | TGI [47]: 32.8 µM | TGI [48]: 25.9 µM | TGI [57]: > 100 µM | TGI [49]: > 100 µM | TGI [69]: > 100 µM | TGI [50]: > 94.4 µM | TGI [51]: > 100 µM | TGI [52]: > 100 µM | TGI [53]: > 88 µM | TGI [54]: > 100 µM | TGI [55]: > 48.8 µM
